Data taken from patent US4734409A, “Cephalosporin derivative, process for producing the same and pharmaceutical composition containing the same” (Kureha Kagaku Kogyo Kabushiki Kaisha, priority 1984, dated 1988).

Columns and labels:
[1] = test system: Escherichia coli W 3636; assay: Antibacterial activity, agar plate dilution method: E. coli W 3636; assay type: cell-based; conditions: Mueller-Hinton agar, 10^6 cells/ml, 37° C., 18 to 24 hours
Protocol: Antibacterial activity of the present compound was examined by agar plate dilution method while following the standard method of Japan Society of Chemotherapy and using the following strain:
3. Escherichia coli W 3636
Namely, after inoculating each bacteria on Mueller-Hinton culture medium, the inoculum was incubated for 18 to 48 hours at 37° C. and after adjusting the number of cells of each bacteria so as to contain 10^6 in one ml, the thus prepared specimen was used as the test bacterial liquid.
Each of the present substances (the substance in Example 1 and the substance in Example 2) was dispersed in aqueous physiological saline solution at a predetermined concentration and the thus prepared dispersion was added to 9 times by volume of the culture medium for examining sensitivity (Mueller-Hinton culture medium) to prepare agar plates.
On each agar plate, each of the test bacterial liquid was smeared at a width of about 2 cm, and the thus smeared agar plate was incubated for 18 to 24 hours at 37° C.

[2] = test system: Staphylcoccus aureus IAM 1011; assay: Activation by rat liver homogenate (S-9 mix), penicillin cup proliferation-inhibiting circle; assay type: cell-based, Staphylococcus aureus; conditions: 20 min at 37° C., inhibiting circle diameter as % of that of the starting compound; for Degree of activation, Before adding S-9 mix: phosphoric acid buffer control; for Degree of activation, After adding S-9 mix: rat liver S-9 mix
Protocol: As an enzyme for activating metabolism of the present compound, rat liver homogenate (S-9, manufactured by Oriental Yeast Co., Ltd.) was used in preparing the following mixture (hereinafter referred to as S-9 mix).
Composition of S-9 mix (amount in one ml of S-9 mix)
A test solution of present compound was prepared by mixing 0.1 ml of a dispersion of the present compound and 0.9 ml of the thus prepared S-9 mix and shaking the thus prepared mixture for 20 min at 37° C. As a control, a mixture was prepared by mixing 0.1 ml of the dispersion of the present compound and 0.9 ml of the 0.2M phosphoric acid buffer and shaking the mixture for 20 min at 37° C.
As the test bacteria, Staphylcoccus aureus IAM 1011 was inoculated in Mueller-Hinton culture medium and after incubating the inoculum for 18 hours at 37° C., the number of the bacteria was adjusted to 10^8 /ml and the bacterial preparation was mixed with 50 times by volume of Mueller-Hinton culture medium, and an agar plate was prepared from the mixture.
After placing a penicillin cup of 8 mm in diameter on the thus prepared agar plate, 0.1 ml of the test solution of present compound prepared above was put into the cup, and after leaving the agar plate for 2 hours at 4° C., the agar plate was subjected to culture for 18 hours at 37° C. and the diameter of a proliferation-inhibiting circle appearing on the agar plate was measured.
The same procedures were carried out except for using 7β-[2-(2-amino-4-thiazolyl)-(Z)-2-methoxyiminoacetamido]-3-[(2-methyl-1,3,4-thiadiazol-5-yl)thiomethyl]-3-cephem-4-carboxylic acid used as a starting compound for producing the present compound in Example 1 instead of the present compound.
The percentage of the diameter of a proliferation-inhibiting circle due to the present compound to that due to the starting compound mentioned above was obtained, and from the following standards, the degree of activation was obtained.

[3] = test system: Streptococcus sp.; assay: Effect on the intestinal bacterial colonies: Streptococcus sp. in feces; assay type: in vivo, Streptococcus sp. (feces of female ICR-JCL mice); conditions: after administration; 100 mg/kg orally once a day, 2 days; before administration 6.8
Protocol: (§1) Effect of the present compound on the intestinal bacterial colonies was examined as follows.
(§2) The present compound prepared in Example 2 was orally administered to each of 5 animals of a group of female ICR-JCL mice of 6-weeks-old at a daily dosage of 100 mg/kg once a day for continuous 2 days. Feces of each of the mice were collected before and after one day of the administration, and after diluting thereof with 100 times by weight of an anaerobic diluent (an aqueous phosphoric acid buffer) the thus diluted feces were ground, and 0.1 ml of the thus ground and diluted feces was smeared on each culture medium for each bacterial species (shown in Table 1).
(§3) After incubating the thus prepared culture media at 25° C. for one to five days aerobically in the cases of Escherichia coli, Pseudomonas aeruginosa and the Streptococcus species or anaerobically in the cases of the Lactobacillus acidophilus, Lactobacillus bifidus and the Bacterioides species, the number of each bacteria proliferating on the culture medium was counted.
TATAC the same as above

[4] = test system: Pseudomonas aeruginosa IAM 1514; assay: Antibacterial activity, agar plate dilution method: P. aeruginosa IAM 1514; assay type: cell-based; conditions: Mueller-Hinton agar, 10^6 cells/ml, 37° C., 18 to 24 hours
Protocol: (§4) Antibacterial activity of the present compound was examined by agar plate dilution method while following the standard method of Japan Society of Chemotherapy and using the following strain: 5. Pseudomonas aeruginosa IAM 1514 Namely, after inoculating each bacteria on Mueller-Hinton culture medium, the inoculum was incubated for 18 to 48 hours at 37° C. and after adjusting the number of cells of each bacteria so as to contain 10^6 in one ml, the thus prepared specimen was used as the test bacterial liquid. Each of the present substances (the substance in Example 1 and the substance in Example 2) was dispersed in aqueous physiological saline solution at a predetermined concentration and the thus prepared dispersion was added to 9 times by volume of the culture medium for examining sensitivity (Mueller-Hinton culture medium) to prepare agar plates. On each agar plate, each of the test bacterial liquid was smeared at a width of about 2 cm, and the thus smeared agar plate was incubated for 18 to 24 hours at 37° C.

[5] = test system: Lactobacillus bifidus; assay: Effect on the intestinal bacterial colonies: L. bifidus in feces; assay type: in vivo, Lactobacillus bifidus (feces of female ICR-JCL mice); conditions: after administration; 100 mg/kg orally once a day, 2 days; before administration 8.5
Protocol: as §1, §2, §3
(5) Lactobacillus bifidus

[6] = test system: Escherichia coli; assay: Effect on the intestinal bacterial colonies: E. coli in feces; assay type: in vivo, Escherichia coli (feces of female ICR-JCL mice); conditions: after administration; 100 mg/kg orally once a day, 2 days; before administration 6.4
Protocol: as §1, §2, §3
DHL aerobic, 37° C., one day

[7] = test system: Serratia marcescens IAM 1223; assay: Antibacterial activity, agar plate dilution method: S. marcescens IAM 1223; assay type: cell-based; conditions: Mueller-Hinton agar, 10^6 cells/ml, 37° C., 18 to 24 hours
Protocol: as §4, with “6. Serratia marcescens” for “5. Pseudomonas aeruginosa”, “1223” for “1514”

SMILES	minimal inhibitory concentration (MIC), E. coli W 3636 [1]	Degree of activation, Before adding S-9 mix [2]	Degree of activation, After adding S-9 mix [2]	Logarithmic value of the number of bacterial cells per one gram of feces, (3) Streptococcus sp. [3]	minimal inhibitory concentration (MIC), P. aeruginosa IAM 1514 [4]	Logarithmic value of the number of bacterial cells per one gram of feces, (5) L. bifidus [5]	Logarithmic value of the number of bacterial cells per one gram of feces, (1) E. coli [6]	minimal inhibitory concentration (MIC), S. marcescens IAM 1223 [7]
CO/N=C(\C(=O)N[C@@H]1C(=O)N2C(C(=O)OCOC(=O)C(C)(C)C)=C(CSc3nnc(C)s3)CS[C@H]12)c1csc(NC(=O)C(Cl)Cl)n1 [Example 2]	≥ 100	± (0 to 1%)	++++ (100 to 150%)	7.0 Logarithmic value of the number of bacterial cells per one gram of feces	≥ 100	8.5 Logarithmic value of the number of bacterial cells per one gram of feces	6.4 Logarithmic value of the number of bacterial cells per one gram of feces	≥ 100
CO/N=C(\C(=O)N[C@@H]1C(=O)N2C(C(=O)O)=C(CSc3nnc(C)s3)CS[C@H]12)c1csc(NC(=O)C(Cl)Cl)n1 [Example 1, 7β-[2-(2-dichloroacetamido-4-thiazolyl)-(Z)-2-methoxyiminoacetamido]-3-[(2-methyl-1,3,4-thiadiazol-5-yl)thiomethyl]-3-cephem-4-carboxylic acid]	0.4	++++ (100 to 150%)	++++ (100 to 150%)		50			0.4
